# Measured values reported in patent US20110172297A1, “Oxopiperdinyl And Pyranyl Sulfonamides and Pharmaceutical Compositions Thereof” (Pfizer Inc, priority 2008, published 2011).
# Test system: AMPA receptors
# Assay: AMPA ES cell FLIPR screen (AMPA Potentiator Assay)
# Type: cell-based
# Settings: murine ES cell-derived neurons, FLIPR Fluo-4 calcium signal, 32 uM AMPA challenge; values marked * are the geometric mean of 2-9 EC50 determinations
# Description: The murine ES cell line used was E14-Sx1-16C, which has a targeted mutation in the Sox1 gene, a neuroectodermal marker, that offers G418 resistance when the Sox1 gene is expressed (Stem Cell Sciences). ES cells were maintained undifferentiated as previously described (Roach). […] ES cells were plated on gelatin-coated dishes (BD Biosciences), the media was changed daily and the cells were dissociated with 0.05% Trypsin EDTA (Invitrogen) every other day.
# Embryoid Body Formation: Prior to embryoid body (EB) formation the ES cells were weaned from FBS onto Knockout Serum Replacement (KSR) (Invitrogen). To form EBs, ES cells were dissociated into a single cell suspension, then 3×10^6 cells were plated in bacteriology dishes (Nunc 4014) and grown as a suspension culture in NeuroEB-I medium that consisted of Knockout™ D-MEM (Invitrogen), supplemented with 10% KSR (Invitrogen), 0.2 mM L-Glutamine (Invitrogen), 0.1 mM MEM non-essential amino acids (Invitrogen), 30 μg/ml Gentamicin (Invitrogen), 1000 u/ml ESGRO (Chemicon), 0.1 mM 2-Mercaptoethanl (Sigma) and 150 ng/ml Transferrin (Invitrogen). The plates were put on a Stovall Belly Button shaker in an atmospheric oxygen incubator. The media was changed on day 2 of EB formation with NeuroEB-I and on day 4 with NeuroEB-II (NeuroEB-I plus 1 μg/ml mNoggin [R&D Systems]).
# Neuronal Precursor Selection and Expansion: On day 5 of EB formation, EBs were dissociated with 0.05% Trypsin EDTA, and 4×10^6cells/100 mm dish were plated on Laminin coated tissue culture dishes in Neuroll-G418 medium that consisted of a base medium of a 1:1 mixture of D-MEM/F12 supplemented with N2 supplements and NeuroBasal Medium supplemented with B27 supplement and 0.1 mM L-Glutamine (all from Invitrogen). The base medium was then supplemented with 10 ng/ml bFGF (Invitrogen), 1 μg/ml mNoggin, 500 ng/ml SHH—N, 100 ng/ml FGF-8b (R&D Systems), 1 μg/ml Laminin and 200 μg/ml G418 (Invitrogen) for selection of neuronal precursors expressing Sox-1. The plates were put in an incubator that contained 2% Oxygen and were maintained in these conditions. During the 6-day selection period, the Neuroll media was changed daily. On day 6, the surviving neuronal precursor foci were dissociated with 0.05% Trypsin EDTA and the cells were plated at a density of 1.5×10^6 cells/100 mm Laminin coated dish in Neuroll-G418 medium. The cells were dissociated every other day for expansion, and prepared for Cryopreservation at passage 3 or 4. The crypreservation medium contained 50% KSR, 10% Dimethyl Sulfoxide (DMSO) (Sigma) and 40% Neurol-G418I medium. Neuronal precursors were crypreserved at a concentration of 4×10^6 cells/ml and 1 ml/cryovial in a controlled rate freezer overnight then transferred to an ultra-low freezer or liquid nitrogen for long-term storage.
# Neuronal Differentiation: Cryopreserved ES cell-derived neuronal precursors were thawed by the rapid thaw method in a 37-degree water-bath. The cells were transferred from the cryovial to a 100 mm Laminin coated tissue culture dish that already contained Neuroll-G418 that had been equilibrated in a 2% Oxygen incubator. The media was changed with fresh Neuroll-G418 the next day. The cells were dissociated every other day as described above for expansion to generate enough cells to plate for the screen. For the screen, the cells were plated into 384-well poly-d-lysine coated tissue culture dishes (BD Biosciences) by the automated SelecT at a cell density of 6K cells/well in differentiation medium Neurolll that contained a 4:1 ratio of the NeuroBasalMedium/B27:D-MEM/F12/N2 supplemented with 1 μM cAMP (Sigma), 200 μM Ascorbic Acid (Sigma), 1 μg/ml Laminin (Invitrogen) and 10 ng/ml BDNF (R&D Systems). The plates were put in an incubator with 2% Oxygen and allowed to complete the differentiation process for 7 days. The cells could then be used over a 5-day period for the high throughput screen.
# On the day of the assay, the FLIPR assay may be performed using the following methods: […]
row,EC50,Structure (SMILES)
1,> 31.6 µM,"CC(C)S(=O)(=O)N[C@@H]1CCOC[C@H]1c1ccc(-c2ccc(C#N)s2)cc1 [Example 42, N-{(3S,4R)-3-[4-(5-cyano-2-thienyl)phenyl]tetrahydro-2H-pyran-4-yl}propane-2-sulfonamide]"
2,> 31.6 µM,"CC(C)S(=O)(=O)N[C@@H]1CCOC[C@H]1c1ccc(-c2ccc(C#N)cc2)cc1 [Example 39, N-[(3S,4R)-3-(4′-cyanobiphenyl-4-yl)tetrahydro-2H-pyran-4-yl]propane-2-sulfonamide]"
3,> 31.6 µM,"CCOc1ccccc1-c1ccc([C@H]2CCOC[C@H]2NS(=O)(=O)C(C)C)cc1 [Example 62, N-[(3S,4R)-4-(2′-ethoxybiphenyl-4-yl)tetrahydro-2H-pyran-3-yl]propane-2-sulfonamide]"
